Assay results from ChEMBL document CHEMBL4507261, “Data for DCP probe A-192621” (2021).

How the values were obtained:
[1] = target: Calcitonin-gene-related peptide receptor, CALCRL/RAMP1 (Homo sapiens) (UniProt O60894+Q16602); assay: CGRP (h) Eurofins-Cerep binding assay; type: protein-complex assay; parameters: ligand concentration 0.03 nM; conditions: filed as agonist, Compound concentration 10.0 uM
[2] = target: Glutamate NMDA receptor (Rattus norvegicus) (UniProt P35439+Q00959+Q00960+Q00961+Q62645+Q8VHN2+Q9R1M7); assay: NMDA Eurofins-Cerep binding assay; type: protein-complex assay; parameters: ligand concentration 5 nM; conditions: filed as antagonist, Compound concentration 10.0 uM
[3] = target: Tumor necrosis factor (Homo sapiens) (UniProt P01375); assay: TNF-alpha (h) Eurofins-Cerep binding assay; conditions: filed as agonist, Compound concentration 10.0 uM
[4] = target: T1, Muscarinic acetylcholine receptor M4 (Homo sapiens) (UniProt P08173); assay: M4 (h) Eurofins-Cerep binding assay; parameters: ligand concentration 0.2 nM; conditions: filed as antagonist, Compound concentration 10.0 uM
T1 sequence (whole entry): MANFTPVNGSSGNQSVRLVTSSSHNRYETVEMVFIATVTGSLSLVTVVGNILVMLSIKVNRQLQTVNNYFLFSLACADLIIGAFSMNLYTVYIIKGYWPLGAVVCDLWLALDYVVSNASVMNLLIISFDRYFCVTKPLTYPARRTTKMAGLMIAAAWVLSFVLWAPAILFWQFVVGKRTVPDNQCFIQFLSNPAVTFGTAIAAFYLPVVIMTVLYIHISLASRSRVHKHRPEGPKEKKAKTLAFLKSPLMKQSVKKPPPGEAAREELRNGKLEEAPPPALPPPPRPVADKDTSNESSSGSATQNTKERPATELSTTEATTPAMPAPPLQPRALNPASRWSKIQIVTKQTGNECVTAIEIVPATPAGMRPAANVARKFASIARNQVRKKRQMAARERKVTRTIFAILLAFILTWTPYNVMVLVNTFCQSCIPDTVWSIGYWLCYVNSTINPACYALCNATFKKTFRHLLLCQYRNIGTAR

[5] = target: Kappa-type opioid receptor (Homo sapiens) (UniProt P41145); assay: kappa (h) (KOP) Eurofins-Cerep binding assay; parameters: ligand concentration 0.5 nM; conditions: filed as agonist, Compound concentration 10.0 uM
[6] = target: voltage-gated Na+ channel (site 2) (Rattus norvegicus, UniProt F1LQQ7+O08562+O88420+O88457+P04774+P04775+P08104+P15389+P15390+Q62968); assay: Na+ channel (site 2) Eurofins-Cerep binding assay; parameters: incubation time 60 min, incubation temperature 37°C, ligand concentration 10 nM; conditions: rat cerebral cortex (source of protein), probe [3H]batrachotoxin (10 nM), compound concentration 10 uM, read-out: % Inhibition of Control Specific Binding (Mean n=2)
[7] = system: Tyrosine-protein kinase ABL1 (Homo sapiens), P00519 [F317I]; conditions: Compound concentration 1000.0 nM
[8] = system: Tyrosine-protein kinase ABL1 (Homo sapiens), P00519 [M351T]; conditions: Compound concentration 1000.0 nM
[9] = target: Tyrosine-protein kinase ABL2 (Homo sapiens) (UniProt P42684); conditions: Compound concentration 1000.0 nM
[10] = target: Mitogen-activated protein kinase kinase kinase 6 (Homo sapiens) (UniProt O95382); conditions: Compound concentration 1000.0 nM
[11] = target: Aurora kinase B (Homo sapiens) (UniProt Q96GD4); conditions: Compound concentration 1000.0 nM
[12] = target: Bone morphogenetic protein receptor type-2 (Homo sapiens) (UniProt Q13873); conditions: Compound concentration 1000.0 nM
[13] = target: Cyclin-dependent kinase 5 (Homo sapiens) (UniProt Q00535); conditions: Compound concentration 1000.0 nM
[14] = target: Casein kinase I isoform delta (Homo sapiens) (UniProt P48730); conditions: Compound concentration 1000.0 nM
[15] = target: Death-associated protein kinase 2 (Homo sapiens) (UniProt Q9UIK4); conditions: Compound concentration 1000.0 nM
[16] = target: Myotonin-protein kinase (Homo sapiens) (UniProt Q09013); conditions: Compound concentration 1000.0 nM
[17] = target: Dual specificity tyrosine-phosphorylation-regulated kinase 2 (Homo sapiens) (UniProt Q92630); conditions: Compound concentration 1000.0 nM
[18] = system: Epidermal growth factor receptor (Homo sapiens), P00533 [UNDEFINED MUTATION]; conditions: Compound concentration 1000.0 nM
[19] = target: Focal adhesion kinase 1 (Homo sapiens) (UniProt Q05397); conditions: Compound concentration 1000.0 nM
[20] = target: Fibroblast growth factor receptor 3 (Homo sapiens) (UniProt P22607); conditions: Compound concentration 1000.0 nM
[21] = target: Receptor-type tyrosine-protein kinase FLT3 (Homo sapiens) (UniProt P36888); conditions: Compound concentration 1000.0 nM
[22] = target: Rhodopsin kinase GRK1 (Homo sapiens) (UniProt Q15835); conditions: Compound concentration 1000.0 nM
[23] = target: Serine/threonine-protein kinase 10 (Homo sapiens) (UniProt O94804); conditions: Compound concentration 1000.0 nM
[24] = target: MAP/microtubule affinity-regulating kinase 3 (Homo sapiens) (UniProt P27448); conditions: Compound concentration 1000.0 nM
[25] = target: Serine/threonine-protein kinase PAK 1 (Homo sapiens) (UniProt Q13153); conditions: Compound concentration 1000.0 nM
[26] = target: Phosphatidylinositol 4-phosphate 3-kinase C2 domain-containing subunit beta (Homo sapiens) (UniProt O00750); conditions: Compound concentration 1000.0 nM
[27] = system: Phosphatidylinositol 4,5-bisphosphate 3-kinase catalytic subunit alpha isoform (Homo sapiens), P42336 [M1043I]; conditions: Compound concentration 1000.0 nM
[28] = target: Protein kinase C eta type (Homo sapiens) (UniProt P24723); conditions: Compound concentration 1000.0 nM
[29] = target: Protein-tyrosine kinase 2-beta (Homo sapiens) (UniProt Q14289); conditions: Compound concentration 1000.0 nM
[30] = target: Receptor-interacting serine/threonine-protein kinase 1 (Homo sapiens) (UniProt Q13546); conditions: Compound concentration 1000.0 nM
[31] = target: Ribosomal protein S6 kinase alpha-1 (Homo sapiens) (UniProt Q15418); conditions: Compound concentration 1000.0 nM
[32] = target: Uncharacterized serine/threonine-protein kinase SBK3 (Homo sapiens) (UniProt P0C264); conditions: Compound concentration 1000.0 nM
[33] = target: Tyrosine-protein kinase Srms (Homo sapiens) (UniProt Q9H3Y6); conditions: Compound concentration 1000.0 nM
[34] = target: SRSF protein kinase 3 (Homo sapiens) (UniProt Q9UPE1); conditions: Compound concentration 1000.0 nM
[35] = target: BDNF/NT-3 growth factors receptor (Homo sapiens) (UniProt Q16620); conditions: Compound concentration 1000.0 nM
[36] = target: Endothelin-1 receptor (Homo sapiens) (UniProt P25101); conditions: filed as agonist, Compound concentration 10.0 uM

Sequence of Rhodopsin kinase GRK1 (Homo sapiens) (Q15835 whole entry): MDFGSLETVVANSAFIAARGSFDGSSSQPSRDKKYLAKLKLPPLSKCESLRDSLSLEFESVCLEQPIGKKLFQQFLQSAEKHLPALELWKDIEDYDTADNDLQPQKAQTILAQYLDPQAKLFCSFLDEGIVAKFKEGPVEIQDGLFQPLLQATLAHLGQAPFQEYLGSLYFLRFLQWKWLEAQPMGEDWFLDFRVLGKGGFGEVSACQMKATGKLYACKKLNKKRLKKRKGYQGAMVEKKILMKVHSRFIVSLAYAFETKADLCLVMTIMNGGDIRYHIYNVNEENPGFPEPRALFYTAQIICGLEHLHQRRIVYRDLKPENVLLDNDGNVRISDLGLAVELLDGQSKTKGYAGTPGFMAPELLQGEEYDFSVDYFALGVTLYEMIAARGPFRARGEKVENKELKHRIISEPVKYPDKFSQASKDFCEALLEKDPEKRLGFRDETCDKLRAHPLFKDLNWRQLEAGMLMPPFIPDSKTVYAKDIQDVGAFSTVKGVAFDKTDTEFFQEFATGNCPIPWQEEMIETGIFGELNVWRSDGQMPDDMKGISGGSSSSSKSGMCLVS
Sequence of Tumor necrosis factor (Homo sapiens) (P01375 whole entry): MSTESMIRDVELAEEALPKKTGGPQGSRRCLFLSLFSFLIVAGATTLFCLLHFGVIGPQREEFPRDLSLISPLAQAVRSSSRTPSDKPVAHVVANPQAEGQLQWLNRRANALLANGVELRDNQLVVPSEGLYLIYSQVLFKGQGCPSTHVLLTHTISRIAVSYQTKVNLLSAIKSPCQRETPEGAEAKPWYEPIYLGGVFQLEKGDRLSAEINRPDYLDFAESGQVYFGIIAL
Sequence of Tyrosine-protein kinase ABL2 (Homo sapiens) (P42684 whole entry): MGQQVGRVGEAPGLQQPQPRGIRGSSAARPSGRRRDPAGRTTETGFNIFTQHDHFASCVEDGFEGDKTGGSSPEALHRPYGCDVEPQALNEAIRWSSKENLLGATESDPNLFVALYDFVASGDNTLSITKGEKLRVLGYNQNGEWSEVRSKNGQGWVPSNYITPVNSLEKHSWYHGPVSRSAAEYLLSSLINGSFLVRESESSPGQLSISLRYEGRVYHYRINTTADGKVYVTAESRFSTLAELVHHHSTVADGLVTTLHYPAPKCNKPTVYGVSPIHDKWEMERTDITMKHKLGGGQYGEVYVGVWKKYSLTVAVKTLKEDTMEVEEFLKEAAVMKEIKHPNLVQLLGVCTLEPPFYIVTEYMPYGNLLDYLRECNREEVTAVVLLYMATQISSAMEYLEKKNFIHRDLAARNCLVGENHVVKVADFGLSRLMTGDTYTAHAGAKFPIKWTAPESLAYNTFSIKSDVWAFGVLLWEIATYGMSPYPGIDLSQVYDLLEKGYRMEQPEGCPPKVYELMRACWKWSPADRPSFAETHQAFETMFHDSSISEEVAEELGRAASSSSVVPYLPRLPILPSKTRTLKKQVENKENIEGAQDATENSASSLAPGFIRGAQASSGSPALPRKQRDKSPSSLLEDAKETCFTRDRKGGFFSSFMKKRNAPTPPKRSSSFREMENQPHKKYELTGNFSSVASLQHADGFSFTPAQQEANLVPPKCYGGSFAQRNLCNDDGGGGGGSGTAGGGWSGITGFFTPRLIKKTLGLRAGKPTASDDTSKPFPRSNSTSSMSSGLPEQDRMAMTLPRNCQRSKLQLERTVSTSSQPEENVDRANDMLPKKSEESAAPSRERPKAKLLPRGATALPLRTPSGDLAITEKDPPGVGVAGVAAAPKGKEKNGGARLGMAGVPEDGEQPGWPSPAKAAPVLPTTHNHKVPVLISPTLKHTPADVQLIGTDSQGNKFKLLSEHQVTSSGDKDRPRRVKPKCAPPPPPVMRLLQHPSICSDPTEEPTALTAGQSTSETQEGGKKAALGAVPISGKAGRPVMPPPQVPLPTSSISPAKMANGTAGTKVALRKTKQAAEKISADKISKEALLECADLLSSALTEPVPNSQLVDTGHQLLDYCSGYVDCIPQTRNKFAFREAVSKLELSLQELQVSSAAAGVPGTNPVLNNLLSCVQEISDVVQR
Sequence of Ribosomal protein S6 kinase alpha-1 (Homo sapiens) (Q15418 whole entry): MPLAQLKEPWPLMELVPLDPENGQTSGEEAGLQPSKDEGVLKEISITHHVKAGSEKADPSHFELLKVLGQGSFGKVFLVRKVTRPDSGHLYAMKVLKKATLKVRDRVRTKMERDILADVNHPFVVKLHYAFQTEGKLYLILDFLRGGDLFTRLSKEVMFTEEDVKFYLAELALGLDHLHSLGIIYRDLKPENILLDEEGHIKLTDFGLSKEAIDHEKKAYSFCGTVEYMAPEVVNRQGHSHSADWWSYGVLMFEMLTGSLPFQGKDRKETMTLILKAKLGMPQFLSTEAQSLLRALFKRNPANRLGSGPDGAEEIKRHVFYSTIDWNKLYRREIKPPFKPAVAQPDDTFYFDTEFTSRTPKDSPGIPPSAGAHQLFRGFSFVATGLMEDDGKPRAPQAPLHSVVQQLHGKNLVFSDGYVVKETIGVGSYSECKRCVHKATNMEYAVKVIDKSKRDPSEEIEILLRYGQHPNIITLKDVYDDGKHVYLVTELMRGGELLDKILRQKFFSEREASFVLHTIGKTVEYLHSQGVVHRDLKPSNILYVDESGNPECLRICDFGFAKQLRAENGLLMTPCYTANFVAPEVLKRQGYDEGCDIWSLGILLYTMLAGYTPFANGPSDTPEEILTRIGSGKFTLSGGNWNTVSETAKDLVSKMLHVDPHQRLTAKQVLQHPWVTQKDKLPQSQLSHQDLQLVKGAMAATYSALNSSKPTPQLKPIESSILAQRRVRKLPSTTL
Sequence of BDNF/NT-3 growth factors receptor (Homo sapiens) (Q16620 32-822 limits assumed): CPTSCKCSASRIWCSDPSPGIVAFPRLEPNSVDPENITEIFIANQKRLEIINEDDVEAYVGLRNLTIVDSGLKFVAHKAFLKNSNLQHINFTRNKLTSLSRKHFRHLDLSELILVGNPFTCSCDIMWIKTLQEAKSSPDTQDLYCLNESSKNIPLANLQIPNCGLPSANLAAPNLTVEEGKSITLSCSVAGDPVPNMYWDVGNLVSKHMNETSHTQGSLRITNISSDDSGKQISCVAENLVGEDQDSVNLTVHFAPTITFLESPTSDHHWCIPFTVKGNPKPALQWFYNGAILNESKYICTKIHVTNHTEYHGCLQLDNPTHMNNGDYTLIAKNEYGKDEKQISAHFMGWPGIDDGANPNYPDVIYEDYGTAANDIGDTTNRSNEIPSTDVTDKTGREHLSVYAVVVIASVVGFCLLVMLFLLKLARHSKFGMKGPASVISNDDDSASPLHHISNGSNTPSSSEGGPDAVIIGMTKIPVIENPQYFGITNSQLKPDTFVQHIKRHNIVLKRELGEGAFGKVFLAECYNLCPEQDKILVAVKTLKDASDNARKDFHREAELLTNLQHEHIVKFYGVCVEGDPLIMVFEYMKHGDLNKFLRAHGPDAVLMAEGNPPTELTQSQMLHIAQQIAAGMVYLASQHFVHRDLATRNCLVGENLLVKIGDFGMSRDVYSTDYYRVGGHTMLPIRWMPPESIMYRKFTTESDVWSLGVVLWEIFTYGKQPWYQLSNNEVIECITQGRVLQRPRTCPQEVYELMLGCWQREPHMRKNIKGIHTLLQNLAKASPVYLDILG
Sequence of MAP/microtubule affinity-regulating kinase 3 (Homo sapiens) (P27448 whole entry, looked up): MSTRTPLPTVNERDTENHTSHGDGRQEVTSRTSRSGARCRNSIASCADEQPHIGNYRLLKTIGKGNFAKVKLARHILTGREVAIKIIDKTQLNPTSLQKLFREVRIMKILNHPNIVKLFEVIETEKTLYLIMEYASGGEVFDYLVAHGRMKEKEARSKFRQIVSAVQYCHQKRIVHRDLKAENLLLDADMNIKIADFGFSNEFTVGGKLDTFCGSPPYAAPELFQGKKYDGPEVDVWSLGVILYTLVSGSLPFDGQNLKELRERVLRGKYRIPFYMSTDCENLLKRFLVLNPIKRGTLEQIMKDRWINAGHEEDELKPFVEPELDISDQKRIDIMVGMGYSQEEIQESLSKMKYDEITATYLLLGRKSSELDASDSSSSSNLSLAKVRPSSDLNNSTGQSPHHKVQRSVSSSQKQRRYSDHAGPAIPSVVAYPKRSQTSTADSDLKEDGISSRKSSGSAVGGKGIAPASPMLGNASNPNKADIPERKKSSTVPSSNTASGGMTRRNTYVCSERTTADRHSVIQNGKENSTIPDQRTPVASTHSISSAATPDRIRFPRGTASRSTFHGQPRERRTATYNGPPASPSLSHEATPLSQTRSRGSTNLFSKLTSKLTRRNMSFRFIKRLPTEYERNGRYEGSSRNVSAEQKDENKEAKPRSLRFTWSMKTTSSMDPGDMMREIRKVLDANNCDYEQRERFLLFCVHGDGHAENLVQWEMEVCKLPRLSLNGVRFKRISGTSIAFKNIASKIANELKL
Sequence of Casein kinase I isoform delta (Homo sapiens) (P48730 whole entry, looked up, canonical isoform): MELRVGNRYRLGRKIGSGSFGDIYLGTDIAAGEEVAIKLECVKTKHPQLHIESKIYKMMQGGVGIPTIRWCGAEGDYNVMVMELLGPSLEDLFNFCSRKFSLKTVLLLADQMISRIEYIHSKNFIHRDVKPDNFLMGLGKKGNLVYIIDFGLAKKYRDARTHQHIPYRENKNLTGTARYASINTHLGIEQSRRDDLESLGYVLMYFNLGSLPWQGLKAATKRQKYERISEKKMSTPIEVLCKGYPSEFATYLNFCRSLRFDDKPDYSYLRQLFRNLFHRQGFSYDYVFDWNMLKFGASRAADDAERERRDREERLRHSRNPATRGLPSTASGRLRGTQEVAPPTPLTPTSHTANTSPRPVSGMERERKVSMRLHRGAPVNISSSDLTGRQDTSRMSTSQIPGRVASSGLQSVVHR
Sequence of Aurora kinase B (Homo sapiens) (Q96GD4 whole entry): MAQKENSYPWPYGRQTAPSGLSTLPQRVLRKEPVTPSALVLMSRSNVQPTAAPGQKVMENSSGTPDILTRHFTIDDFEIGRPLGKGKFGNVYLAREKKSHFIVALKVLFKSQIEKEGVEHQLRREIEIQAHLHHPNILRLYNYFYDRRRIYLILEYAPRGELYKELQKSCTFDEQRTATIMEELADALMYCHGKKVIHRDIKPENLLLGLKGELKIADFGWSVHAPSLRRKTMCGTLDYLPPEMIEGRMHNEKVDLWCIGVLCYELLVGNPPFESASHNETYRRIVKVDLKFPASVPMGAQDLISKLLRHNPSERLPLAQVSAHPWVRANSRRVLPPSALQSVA

CCCOc1ccc([C@@H]2[C@@H](C(=O)O)[C@H](c3ccc4c(c3)OCO4)CN2CC(=O)Nc2c(CC)cccc2CC)cc1 [A-1806262]
% Inhibition of Control Specific Binding (Mean n=2) [1]: -0.3% | % Inhibition of Control Specific Binding (Mean n=2) [2]: 6.6% | % Inhibition of Control Specific Binding (Mean n=2) [3]: 1.2% | % Inhibition of Control Specific Binding (Mean n=2) [4]: -1.8% | % Inhibition of Control Specific Binding (Mean n=2) [5]: 54.1% | inhibition at 60 min, 10 µM [6]: 24.4% | residual activity [7]: 96% | residual activity [8]: 80% | residual activity [9]: 96% | residual activity [10]: 77% | residual activity [11]: 77% | residual activity [12]: 69% | residual activity [13]: 100% | residual activity [14]: 83% | residual activity [15]: 80% | residual activity [16]: 86% | residual activity [17]: 92% | residual activity [18]: 100% | residual activity [19]: 88% | residual activity [20]: 100% | residual activity [21]: 100% | residual activity [22]: 100% | residual activity [23]: 98% | residual activity [24]: 100% | residual activity [25]: 98% | residual activity [26]: 94% | residual activity [27]: 91% | residual activity [28]: 100% | residual activity [29]: 97% | residual activity [30]: 55% | residual activity [31]: 100% | residual activity [32]: 85% | residual activity [33]: 90% | residual activity [34]: 93% | residual activity [35]: 100% | % Inhibition of Control Specific Binding (Mean n=2) [36]: 63.7%

CCCOc1ccc([C@H]2[C@H](C(=O)O)[C@@H](c3ccc4c(c3)OCO4)CN2CC(=O)Nc2c(CC)cccc2CC)cc1 [A-192621]
% Inhibition of Control Specific Binding (Mean n=2) [1]: -6.1% | % Inhibition of Control Specific Binding (Mean n=2) [2]: 3.3% | % Inhibition of Control Specific Binding (Mean n=2) [3]: 3.4% | % Inhibition of Control Specific Binding (Mean n=2) [4]: -2% | % Inhibition of Control Specific Binding (Mean n=2) [5]: 31.9% | inhibition at 60 min, 10 µM [6]: 29.1% | residual activity [7]: 76% | residual activity [8]: 69% | residual activity [9]: 100% | residual activity [10]: 65% | residual activity [11]: 72% | residual activity [12]: 53% | residual activity [13]: 100% | residual activity [14]: 80% | residual activity [15]: 100% | residual activity [16]: 81% | residual activity [17]: 74% | residual activity [18]: 100% | residual activity [19]: 86% | residual activity [20]: 100% | residual activity [21]: 87% | residual activity [22]: 68% | residual activity [23]: 97% | residual activity [24]: 100% | residual activity [25]: 89% | residual activity [26]: 92% | residual activity [27]: 91% | residual activity [28]: 100% | residual activity [29]: 98% | residual activity [30]: 88% | residual activity [31]: 87% | residual activity [32]: 94% | residual activity [33]: 63% | residual activity [34]: 100% | residual activity [35]: 85% | % Inhibition of Control Specific Binding (Mean n=2) [36]: 97.1%
